Source: PubChem BioAssay AID1949 (Southern Research Institute, 2009)
In brackets after ≈: the same amount, converted by molar mass. Records with an inconclusive call do not appear. Activity calls are given as the source filed them. How the calls were made is not given here.

test system: M. tuberculosis H37Rv growth inhibition; assay: Mycobacterium tuberculosis H37Rv growth inhibition, cell based, confirmatory dose response (AID 1949);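 further: bacteria grown 7 days with compound before Alamar blue readout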

**Q.** `OC(COc1ccc2ccccc2c1Br)Cn1ccnc1` (stereo unspecified) was tested. Which IC50 did it give?
**A.** Its IC50 is 5.39 µg/mL (≈ 15.5 µM).

**Q.** `COC(=O)c1ccc(OC(=O)c2c(F)c(F)c(F)c(F)c2F)cc1` was tested. Which IC50 did it give?
**A.** Its IC50 is 9.14 µg/mL (≈ 26.4 µM).

**Q.** For `COC(=O)c1ccc(COC(=O)c2ccccc2Cl)cc1`, which IC50 is on record?
**A.** The IC50 was 1.69 µg/mL (≈ 5.55 µM).

**Q.** With `COc1ccc(NC(=O)C(Cc2c[nH]c3ccccc23)NC(C)=O)cc1` (stereo unspecified) as the molecule, how does the IC50 read?
**A.** Its IC50 is 3.08 µg/mL (≈ 8.76 µM).

**Q.** Which IC50 does the source give for `CCCCn1c(NCc2ccc(N(CC)CC)cc2)nc2ccccc21` here?
**A.** Its IC50 is 11.2 µg/mL (≈ 32 µM).

**Q.** `CCC(C)NCCOc1ccc(C(C)(C)c2ccccc2)cc1` (stereo unspecified) was tested. Which IC50 did it give?
**A.** Its IC50 is 0.91 µg/mL (≈ 2.92 µM).

**Q.** How did the IC50 turn out when `CCOC(=O)C1=C(C)N(c2ccc(Br)cc2)C(=O)C1` was run?
**A.** Its IC50 is 3.23 µg/mL (≈ 9.96 µM).

**Q.** How did the IC50 turn out when `Cc1ccc(OCC(=O)c2ccc(Br)cc2)cc1C` was run?
**A.** The IC50 was 47.7 µg/mL (≈ 149 µM).

**Q.** For `Clc1ccc(OCc2ccccc2Cl)c(CNCc2ccccc2)c1`, which IC50 is on record?
**A.** Its IC50 is 5.09 µg/mL (≈ 13.7 µM).

**Q.** How did the IC50 turn out when `O=C(NC1CCCCC1)c1cc2cc(Cl)cc(Cl)c2oc1=O` was run?
**A.** The IC50 was > 50 µg/mL (inactive).

**Q.** Which IC50 does the source give for `CCCCOC(=O)c1cccc(NC(=O)c2cccc(Cl)c2)c1` here?
**A.** Its IC50 is 4.03 µg/mL (≈ 12.1 µM).

**Q.** With `CCC(=O)Oc1ccc(-c2nc3ccccc3c(=O)o2)cc1` as the molecule, how does the IC50 read?
**A.** Its IC50 is > 50 µg/mL (inactive).

**Q.** `O=C(Nc1nccs1)c1cn(-c2ccccc2)nc1-c1ccco1` was tested. Which IC50 did it give?
**A.** The IC50 was > 50 µg/mL (inactive).

**Q.** `CC(=O)Oc1c(/C=C(\C#N)C(N)=O)[nH]c2ccccc12` was tested. Which IC50 did it give?
**A.** Its IC50 is 5.98 µg/mL (≈ 22.2 µM).

**Q.** `CCn1cc(C(=O)O)c(=O)c2cnc(N3CCN(C(=S)Nc4sc5c(c4C(=O)OC)CCCCCC5)CC3)nc21` was tested. Which IC50 did it give?
**A.** The IC50 was > 50 µg/mL (inactive).

**Q.** How did the IC50 turn out when `N#Cc1cccc(NC(=O)Nc2cccc(Cl)c2)c1` was run?
**A.** Its IC50 is 6.26 µg/mL (≈ 23 µM).

**Q.** With `CCCN1C(=O)c2cccc3cc([N+](=O)[O-])cc(c23)C1=O` as the molecule, how does the IC50 read?
**A.** The IC50 was less than 0.1 µg/mL.

**Q.** Which IC50 does the source give for `CCOc1ccc(Nc2nc(N)c(C(=O)C(C)(C)C)s2)cc1` here?
**A.** The IC50 was 5.96 µg/mL (≈ 18.7 µM).

**Q.** For `O=C(COc1ccc(Cl)cc1)Nc1ccc(N2CCN(C(=O)c3ccco3)CC2)c(Cl)c1`, which IC50 is on record?
**A.** The IC50 was 1.67 µg/mL (≈ 3.52 µM).

**Q.** Which IC50 does the source give for `Cc1cccc(C(C)(C)C)c1OCCOCCn1ccnc1` here?
**A.** The IC50 was 3.97 µg/mL (≈ 13.1 µM).

**Q.** How did the IC50 turn out when `CC(=O)Oc1cc2c(cc1Cl)C1(CC(c3ccccc3Cl)O2)CC(C)(C)NC(=S)N1` (stereo unspecified) was run?
**A.** The IC50 was 2.84 µg/mL (≈ 6.1 µM).

**Q.** `O=C(Oc1ccc(C2CCCCC2)cc1)c1cccs1` was tested. Which IC50 did it give?
**A.** The IC50 was 13.3 µg/mL (≈ 46.4 µM).

**Q.** Which IC50 does the source give for `COC(=O)CSc1[nH]c2ccc(Br)cc2c1[N+](=O)[O-]` here?
**A.** The IC50 was > 50 µg/mL (inactive).

**Q.** Which IC50 does the source give for `Cc1ccc(-c2csc3nc4c5ccccc5c(NCCCN5CCOCC5)nn4c(=O)c23)cc1` here?
**A.** Its IC50 is > 50 µg/mL (inactive).

**Q.** How did the IC50 turn out when `O=C(Nc1ccc(Nc2ccccc2)cc1)C(Cl)Cl` was run?
**A.** The IC50 was 6.79 µg/mL (≈ 23 µM).

**Q.** With `Cc1ccc(-c2ccc(OCC(=O)OCc3ccccc3)cc2)cc1` as the molecule, how does the IC50 read?
**A.** The IC50 was 0.23 µg/mL (≈ 0.692 µM).

**Q.** For `COc1cc(OC)cc(C(=O)NC(=S)N2CCCCCC2)c1`, which IC50 is on record?
**A.** Its IC50 is 2.83 µg/mL (≈ 8.78 µM).

**Q.** `COC(=O)COc1ccc2c(=O)c(-c3ccccc3Cl)c(C)oc2c1` was tested. Which IC50 did it give?
**A.** Its IC50 is 0.42 µg/mL (≈ 1.17 µM).

**Q.** With `CC(C)COc1ccc(-c2nn(-c3ccccc3)cc2C(=O)Nc2nccs2)cc1` as the molecule, how does the IC50 read?
**A.** The IC50 was 0.19 µg/mL (≈ 0.454 µM).

**Q.** Which IC50 does the source give for `Cc1nn(-c2ccc([N+](=O)[O-])cc2)c(C)c1N1C(=O)c2cccc3cc(Br)cc(c23)C1=O` here?
**A.** Its IC50 is 0.39 µg/mL (≈ 0.794 µM).

**Q.** For `Cc1ccc(NC(=S)Nc2ccc(Cl)c(Cl)c2)c(OC(F)F)c1`, which IC50 is on record?
**A.** Its IC50 is 2.92 µg/mL (≈ 7.74 µM).

**Q.** `CCCn1c2ccccc2c2nc3ccccc3nc21` was tested. Which IC50 did it give?
**A.** Its IC50 is > 50 µg/mL (inactive).

**Q.** With `CCOC(=O)COc1ccc2c(c1)c(C(=O)OCC)c(C)n2CC` as the molecule, how does the IC50 read?
**A.** Its IC50 is 0.4 µg/mL (≈ 1.2 µM).

**Q.** With `Cc1cc(-c2csc(Nc3ccc(S(N)(=O)=O)cc3)n2)ccc1F` as the molecule, how does the IC50 read?
**A.** The IC50 was 2.34 µg/mL (≈ 6.44 µM).

**Q.** Which IC50 does the source give for `Clc1cc(Br)ccc1OCCCn1ccnc1` here?
**A.** Its IC50 is 15 µg/mL (≈ 47.4 µM).

**Q.** Which IC50 does the source give for `CC1CCc2c(sc3ncnc(Nc4ccc(OCc5ccccc5)cc4)c23)C1` (stereo unspecified) here?
**A.** The IC50 was > 50 µg/mL (inactive).

**Q.** With `CC(=O)Oc1c(C(=O)c2ccccc2)sc2ccccc12` as the molecule, how does the IC50 read?
**A.** The IC50 was 0.71 µg/mL (≈ 2.4 µM).

**Q.** For `Cc1ccc(-c2cc(C(=O)N3CCCc4ccccc43)no2)cc1`, which IC50 is on record?
**A.** The IC50 was 9.33 µg/mL (≈ 29.3 µM).

**Q.** Which IC50 does the source give for `C=CCc1cc(/C=C/[N+](=O)[O-])cc(OCC)c1O` here?
**A.** Its IC50 is 5.69 µg/mL (≈ 22.8 µM).

**Q.** Which IC50 does the source give for `O=C(NNC(=S)NCc1ccc(F)cc1)c1ccncc1` here?
**A.** The IC50 was 5.78 µg/mL (≈ 19 µM).

**Q.** For `CCOC(=O)Cc1c(C)nc2c(-c3cccc(Br)c3)c[nH]n2c1=O`, which IC50 is on record?
**A.** Its IC50 is 1.69 µg/mL (≈ 4.33 µM).

**Q.** How did the IC50 turn out when `CC12CCC(C(=O)Oc3cccc4cccnc34)(CC1=O)C2(C)C` (stereo unspecified) was run?
**A.** Its IC50 is 1.57 µg/mL (≈ 4.85 µM).

**Q.** How did the IC50 turn out when `COc1ccc(CCNC(=S)NC23CC4CC(CC(C4)C2)C3)cc1` was run?
**A.** Its IC50 is 7.85 µg/mL (≈ 22.8 µM).

**Q.** How did the IC50 turn out when `CC(C)(C)C(=O)Nc1nc2c(Cl)c(Cl)ccc2s1` was run?
**A.** Its IC50 is 7.02 µg/mL (≈ 23.2 µM).

**Q.** `CCc1nc2ccccc2n1CCCOc1ccccc1` was tested. Which IC50 did it give?
**A.** The IC50 was 0.5 µg/mL (≈ 1.78 µM).

**Q.** `Cc1cc(C)c2[nH]c3ccccc3c2n1` was tested. Which IC50 did it give?
**A.** The IC50 was 1.3 µg/mL (≈ 6.62 µM).

**Q.** Which IC50 does the source give for `CCC(C)c1ccc(OCCCCn2ccnc2)cc1` (stereo unspecified) here?
**A.** The IC50 was 1.12 µg/mL (≈ 4.11 µM).

**Q.** Which IC50 does the source give for `OC(COCCC12CC3CC(CC(C3)C1)C2)CN1CCc2ccccc2C1` (stereo unspecified) here?
**A.** The IC50 was 3.49 µg/mL (≈ 9.44 µM).

**Q.** How did the IC50 turn out when `CNc1nc(N2CCc3ccccc32)ncc1F` was run?
**A.** Its IC50 is 0.91 µg/mL (≈ 3.73 µM).

**Q.** For `COc1ccc(-c2csc(Nc3ccc(S(N)(=O)=O)cc3)n2)cc1`, which IC50 is on record?
**A.** The IC50 was 3.73 µg/mL (≈ 10.3 µM).

**Q.** With `Cc1cc(OCCCn2ccnc2)ccc1C(C)C` as the molecule, how does the IC50 read?
**A.** The IC50 was 4.44 µg/mL (≈ 17.2 µM).

**Q.** With `CN(C)CCC(=O)c1ccc(Br)cc1` as the molecule, how does the IC50 read?
**A.** Its IC50 is 0.61 µg/mL (≈ 2.38 µM).

**Q.** Which IC50 does the source give for `Cc1cc(Cl)c(OCCCNCc2ccccc2)c(Br)c1` here?
**A.** Its IC50 is 11.3 µg/mL (≈ 30.7 µM).

**Q.** Which IC50 does the source give for `CCOc1ccc(NC(=O)CSc2nc3ccc([N+](=O)[O-])cc3s2)cc1` here?
**A.** The IC50 was 1.99 µg/mL (≈ 5.11 µM).

**Q.** Which IC50 does the source give for `CC(C)(C)c1ccc(C(=O)Nc2ccc(S(=O)(=O)Nc3nccs3)cc2)cc1Br` here?
**A.** Its IC50 is 1.19 µg/mL (≈ 2.41 µM).

**Q.** How did the IC50 turn out when `Cc1ccc(-c2nn(-c3cc(N4CCN(C)CC4)ccc3[N+](=O)[O-])c(=O)c3ccccc23)cc1` was run?
**A.** Its IC50 is 8.15 µg/mL (≈ 17.9 µM).

**Q.** Which IC50 does the source give for `COc1ccc(Br)cc1C(=O)Nc1ccc(N2CCN(C)CC2)cc1` here?
**A.** Its IC50 is 12.6 µg/mL (≈ 31.1 µM).

**Q.** Which IC50 does the source give for `COCc1nc2ccccc2n1CCCOc1ccc(C)cc1` here?
**A.** The IC50 was 8.25 µg/mL (≈ 26.6 µM).

**Q.** `Cc1nn2c3ccc(N)cc3nc2c2ccccc12` was tested. Which IC50 did it give?
**A.** The IC50 was 17.5 µg/mL (≈ 70.6 µM).

**Q.** For `CC(=O)Oc1cccc2ccc(/C=C/c3cccc(Br)c3)nc12`, which IC50 is on record?
**A.** The IC50 was less than 0.1 µg/mL.

**Q.** For `Cc1ccc(OCC(=O)c2ccc(C)cc2)cc1`, which IC50 is on record?
**A.** The IC50 was 50 µg/mL (≈ 208 µM).
